In publication PMC8330742, “New benzothieno[2,3-c]pyridines as non-steroidal CYP17 inhibitors: design, synthesis, anticancer screening, apoptosis induction, and in silico ADME profile studies” (Journal of Enzyme Inhibition and Medicinal Chemistry, 2021):

Tests used:
[1] = tested on: SW-620; test: NCI-60 SRB screen; format: cell-based; settings: Homo sapiens; SW-620; single dose 10^−5 M; read-out: Growth inhibition (%)
[2] = tested on: OVCAR-8; test: NCI-60 SRB screen; format: cell-based, human; settings: Homo sapiens; OVCAR-8; single dose 10^−5 M; read-out: Growth inhibition (%)
[3] = tested on: SK-MEL-2; test: NCI-60 SRB screen; format: cell-based, human; settings: Homo sapiens; SK-MEL-2; single dose 10^−5 M; read-out: Growth inhibition (%)
[4] = tested on: COLO 205; test: NCI-60 SRB screen; format: cell-based, human; settings: Homo sapiens; COLO 205; single dose 10^−5 M; read-out: Growth inhibition (%)
[5] = tested on: RXF 393; test: NCI-60 SRB screen; format: cell-based, human; settings: Homo sapiens; RXF 393; single dose 10^−5 M; read-out: Growth inhibition (%)
[6] = tested on: UACC-62; test: NCI-60 SRB screen; format: cell-based, human; settings: Homo sapiens; UACC-62; single dose 10^−5 M; read-out: Growth inhibition (%)
[7] = tested on: LOX IMVI; test: NCI-60 SRB screen; format: cell-based, human; settings: Homo sapiens, single dose 10^−5 M, read-out: Growth inhibition (%)
[8] = tested on: NCI-H226; test: NCI-60 SRB screen; format: cell-based, human; settings: Homo sapiens; NCI-H226; single dose 10^−5 M; read-out: Growth inhibition (%)
[9] = tested on: HCT-15; test: NCI-60 SRB screen; format: cell-based, human; settings: Homo sapiens; HCT-15; single dose 10^−5 M; read-out: Growth inhibition (%)
[10] = tested on: NCI-H522; test: NCI-60 SRB screen; format: cell-based, human; settings: Homo sapiens; NCI-H522; single dose 10^−5 M; read-out: Growth inhibition (%)
[11] = tested on: A549/ATCC; test: NCI-60 SRB screen; format: cell-based, human; settings: Homo sapiens, single dose 10^−5 M, read-out: Growth inhibition (%)
[12] = tested on: UO-31; test: NCI-60 SRB screen; format: cell-based, human; settings: Homo sapiens; UO-31; single dose 10^−5 M; read-out: Growth inhibition (%)
[13] = tested on: 786-0; test: NCI-60 SRB screen; format: cell-based; settings: Homo sapiens; 786-0; single dose 10^−5 M; read-out: Growth inhibition (%)
[14] = tested on: SN12C; test: NCI-60 SRB screen; format: cell-based, human; settings: Homo sapiens, SN12C; SN 12 C; single dose 10^−5 M; read-out: Growth inhibition (%)
[15] = tested on: OVCAR-3; test: NCI-60 SRB screen; format: cell-based, human; settings: Homo sapiens; OVCAR-3; single dose 10^−5 M; read-out: Growth inhibition (%)
[16] = tested on: HT-29; test: NCI-60 SRB screen; format: cell-based; settings: Homo sapiens; HT-29; single dose 10^−5 M; read-out: Growth inhibition (%)
[17] = tested on: UACC-257; test: NCI-60 SRB screen; format: cell-based, human; settings: Homo sapiens, UACC-257; UACC-275 (so in the source); single dose 10^−5 M; read-out: Growth inhibition (%)
[18] = tested on: CCRF-CEM; test: NCI-60 SRB screen; format: cell-based; settings: Homo sapiens, single dose 10^−5 M, read-out: Growth inhibition (%)
[19] = tested on: KM12; test: NCI-60 SRB screen; format: cell-based, human; settings: Homo sapiens; KM12; single dose 10^−5 M; read-out: Growth inhibition (%)
[20] = tested on: SR; test: NCI-60 SRB screen; format: cell-based; settings: Homo sapiens, single dose 10^−5 M, read-out: Growth inhibition (%)
[21] = tested on: HCC-2998; test: NCI-60 SRB screen; format: cell-based, human; settings: Homo sapiens; HCC-2998; single dose 10^−5 M; read-out: Growth inhibition (%)
[22] = tested on: SF-295; test: NCI-60 SRB screen; format: cell-based, human; settings: Homo sapiens; SF-295; single dose 10^−5 M; read-out: Growth inhibition (%)
[23] = tested on: TK-10; test: NCI-60 SRB screen; format: cell-based, human; settings: Homo sapiens; TK-10; single dose 10^−5 M; read-out: Growth inhibition (%)
[24] = tested on: K-562; test: NCI-60 SRB screen; format: cell-based, human; settings: Homo sapiens, K562; K-562; single dose 10^−5 M; read-out: Growth inhibition (%)
[25] = tested on: SK-MEL-5; test: NCI-60 SRB screen; format: cell-based, human; settings: Homo sapiens; SK-MEL-5; single dose 10^−5 M; read-out: Growth inhibition (%)
[26] = tested on: MALME-3M; test: NCI-60 SRB screen; format: cell-based, human; settings: Homo sapiens, single dose 10^−5 M, read-out: Growth inhibition (%)
[27] = tested on: OVCAR-4; test: NCI-60 SRB screen; format: cell-based, human; settings: Homo sapiens; OVCAR-4; single dose 10^−5 M; read-out: Growth inhibition (%)
[28] = tested on: M14; test: NCI-60 SRB screen; format: cell-based, human; settings: Homo sapiens; M14; single dose 10^−5 M; read-out: Growth inhibition (%)
[29] = tested on: SK-MEL-28; test: NCI-60 SRB screen; format: cell-based; settings: Homo sapiens; SK-MEL-28; single dose 10^−5 M; read-out: Growth inhibition (%)
[30] = tested on: CAKI-1; test: NCI-60 SRB screen; format: cell-based, human; settings: Homo sapiens; CAKI-1; single dose 10^−5 M; read-out: Growth inhibition (%)
[31] = tested on: HL-60(TB); test: NCI-60 SRB screen; format: cell-based, human; settings: Homo sapiens; HL-60 (TB); single dose 10^−5 M; read-out: Growth inhibition (%)
[32] = tested on: HOP-62; test: NCI-60 SRB screen; format: cell-based, human; settings: Homo sapiens; HOP-62; single dose 10^−5 M; read-out: Growth inhibition (%)
[33] = tested on: HCT-116; test: NCI-60 SRB screen; format: cell-based, human; settings: Homo sapiens; HCT-116; single dose 10^−5 M; read-out: Growth inhibition (%)
[34] = tested on: NCI-H23; test: NCI-60 SRB screen; format: cell-based, human; settings: Homo sapiens; NCI-H23; single dose 10^−5 M; read-out: Growth inhibition (%)
[35] = tested on: IGROV1; test: NCI-60 SRB screen; format: cell-based, human; settings: Homo sapiens, IGROV-1; IGROV1; single dose 10^−5 M; read-out: Growth inhibition (%)
[36] = tested on: HOP-92; test: NCI-60 SRB screen; format: cell-based, human; settings: Homo sapiens; HOP-92; single dose 10^−5 M; read-out: Growth inhibition (%)
[37] = tested on: MOLT-4; test: NCI-60 SRB screen; format: cell-based; settings: Homo sapiens; MOLT-4; single dose 10^−5 M; read-out: Growth inhibition (%)
[38] = tested on: NCI-H460; test: NCI-60 SRB screen; format: cell-based, human; settings: Homo sapiens; NCI-H460; single dose 10^−5 M; read-out: Growth inhibition (%)
[39] = tested on: NCI/ADR-RES; test: NCI-60 SRB screen; format: cell-based, human; settings: Homo sapiens, single dose 10^−5 M, read-out: Growth inhibition (%)
[40] = tested on: MDA-MB-435; test: NCI-60 SRB screen; format: cell-based; settings: Homo sapiens, MDA-MB-435, read-out: Growth inhibition (%)
[41] = tested on: SF-268; test: NCI-60 SRB screen; format: cell-based, human; settings: Homo sapiens; SF-268; single dose 10^−5 M; read-out: Growth inhibition (%)
[42] = tested on: NCI-H322M; test: NCI-60 SRB screen; format: cell-based, human; settings: Homo sapiens, single dose 10^−5 M, read-out: Growth inhibition (%)
[43] = tested on: panel of 60 cancer cell lines; test: NCI-60 SRB screen, mean or range over the panel; format: cell-based, human; settings: Homo sapiens; mean over the cell lines; single dose 10^−5 M; read-out: Mean growth inhibition (%)
[44] = tested on: EKVX; test: NCI-60 SRB screen; format: cell-based, human; settings: Homo sapiens, single dose 10^−5 M, read-out: Growth inhibition (%)
[45] = tested on: ACHN; test: NCI-60 SRB screen; format: cell-based; settings: Homo sapiens, single dose 10^−5 M, read-out: Growth inhibition (%)

COc1ccc(C2NC(=O)C(C#N)c3c2sc2c(F)cccc32)c(OC)c1 (stereo not drawn) [Compound 5a, 1-(2,4-Dimethoxyphenyl)-4-cyano-8-fluoro-1,2-dihydro[1]benzothieno [2,3-c]pyridin-3(4H)-one]
inhibition at 10 µM [1]: 68.7% | inhibition at 10 µM [2]: 38.7% | inhibition at 10 µM [3]: 35.9% | inhibition at 10 µM [4]: 11.7% | inhibition at 10 µM [5]: 90.3% | inhibition at 10 µM [6]: 58.8% | inhibition at 10 µM [7]: 60.3% | inhibition at 10 µM [8]: 37.8% | inhibition at 10 µM [9]: 63.6% | inhibition at 10 µM [10]: 92% | inhibition at 10 µM [11]: 41.5% | inhibition at 10 µM [12]: 66% | inhibition at 10 µM [13]: 31.6% | inhibition at 10 µM [14]: 26.3% | inhibition at 10 µM [15]: 86.3% | inhibition at 10 µM [16]: 36% | inhibition at 10 µM [17]: 31.8% | inhibition at 10 µM [18]: 28.1% | inhibition at 10 µM [19]: 69% | inhibition at 10 µM [20]: 86.1% | inhibition at 10 µM [21]: 11.7% | inhibition at 10 µM [22]: 72.4% | inhibition at 10 µM [23]: 1.9% | inhibition at 10 µM [24]: 76.1% | inhibition at 10 µM [25]: 18.2% | inhibition at 10 µM [26]: 60.3% | inhibition at 10 µM [27]: 46.3% | inhibition at 10 µM [28]: 62.2% | inhibition at 10 µM [29]: 45.9% | inhibition at 10 µM [30]: 78.7% | inhibition at 10 µM [31]: 43% | inhibition at 10 µM [32]: 42.6% | inhibition at 10 µM [33]: 77.2% | inhibition at 10 µM [34]: 35.2% | inhibition at 10 µM [35]: 48.2% | inhibition at 10 µM [36]: 57.8% | inhibition at 10 µM [37]: 28.6% | inhibition at 10 µM [38]: 68.2% | inhibition at 10 µM [39]: 84.4% | inhibition at 10 µM [40]: -129% | inhibition at 10 µM [41]: 48.9% | inhibition at 10 µM [42]: 9.6% | inhibition at 10 µM [43]: 52.5% | inhibition at 10 µM [44]: 20.7% | inhibition at 10 µM [45]: 62.5%
